From patent US20220089575A1, “FARNESOID X RECEPTOR AGONISTS AND USES THEREOF” (Metacrine, Inc., priority 2017, published 2022)
pEC50: −log10 of the molar value.

biological target: T1, hFXR (Homo sapiens, UniProt Q96RI1); assay: In Vitro FXR Assay (TK): TK-ECRE-luc reporter in transfected CV-1 cells; type: cell-based; settings: 18 hrs, luminescence, maximum efficacy of <25% of the Fexarmine control classified as '+'
T1 construct: expressed in transfected cells; host or cells: CV-1 cells
T1 sequence (Q96RI1 1-486): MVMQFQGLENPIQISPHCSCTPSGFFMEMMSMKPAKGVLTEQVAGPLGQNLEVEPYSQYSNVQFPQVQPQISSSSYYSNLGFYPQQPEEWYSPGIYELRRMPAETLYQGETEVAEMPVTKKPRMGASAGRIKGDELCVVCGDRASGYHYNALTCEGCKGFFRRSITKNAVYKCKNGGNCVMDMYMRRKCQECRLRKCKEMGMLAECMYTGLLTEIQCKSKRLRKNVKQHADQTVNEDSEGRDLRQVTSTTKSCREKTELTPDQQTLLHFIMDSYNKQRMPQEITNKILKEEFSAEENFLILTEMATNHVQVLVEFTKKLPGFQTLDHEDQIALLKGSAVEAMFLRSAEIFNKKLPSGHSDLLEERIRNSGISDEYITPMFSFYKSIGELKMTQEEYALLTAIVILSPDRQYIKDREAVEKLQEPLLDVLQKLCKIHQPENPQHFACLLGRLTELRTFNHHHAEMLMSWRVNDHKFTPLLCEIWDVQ
T1 sequence (P19793 1-462 partner): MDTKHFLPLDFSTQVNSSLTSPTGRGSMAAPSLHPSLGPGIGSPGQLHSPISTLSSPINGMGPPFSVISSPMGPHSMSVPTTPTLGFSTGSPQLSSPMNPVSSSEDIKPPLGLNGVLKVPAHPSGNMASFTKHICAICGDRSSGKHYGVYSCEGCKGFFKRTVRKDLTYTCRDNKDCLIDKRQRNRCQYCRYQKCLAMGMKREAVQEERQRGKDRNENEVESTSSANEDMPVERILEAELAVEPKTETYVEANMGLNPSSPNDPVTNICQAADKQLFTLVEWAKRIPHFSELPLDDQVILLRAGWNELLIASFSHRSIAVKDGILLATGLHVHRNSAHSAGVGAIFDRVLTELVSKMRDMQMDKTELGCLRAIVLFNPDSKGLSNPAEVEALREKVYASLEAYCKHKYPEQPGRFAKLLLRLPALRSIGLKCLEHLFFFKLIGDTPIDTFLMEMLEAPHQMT
Method in brief: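 CV-1 cells transiently co-transfected with hFXR, hRXR, TK-ECRE-luc and pCMX-YFP plasmids in charcoal-stripped serum medium. Serially diluted compounds added, cells incubated 18 h at 37° C, then lysed and luminescence read.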

SMILES | pEC50
COc1ccc([C@H]2CC[C@H](CN(c3cc(-c4coc(C5CC5)n4)ccn3)C(=O)[C@H]3CC[C@H](OC(=O)N4CC(CN(C)C)C4)CC3)CC2)nc1C [Compound 7.106, trans-4-((4-(2-Cyclopropyloxazol-4-yl)pyridin-2-yl)((trans-4-(5-methoxy-6-methylpyridin-2-yl)cyclohexyl)methyl)carbamoyl)cyclohexyl 3-((dimethylamino)methyl)azetidine-1-carboxylate] | ≥ 6.60
COc1ncc(-c2cccc(N(C[C@H]3CC[C@H](c4ccc(OC)c(C)c4)CC3)C(=O)[C@H]3CC[C@H](C(=O)N(C)C)CC3)c2)s1 [Compound 24.02, trans-N^1-((trans-4-(4-Methoxy-3-methylphenyl)cyclohexyl)methyl)-N^1-(3-(2-methoxythiazol-5-yl)phenyl)-N^4,N^4-dimethylcyclohexane-1,4-dicarboxamide] | ≥ 6.60
COc1ncc(-c2cccc(N(C[C@H]3CC[C@H](c4ccc(OC)c(C)c4)CC3)C(=O)[C@H]3CC[C@H](OCc4ccccc4)CC3)c2)s1 [Compound 18.11, trans-4-(Benzyloxy)-N-((trans-4-(4-methoxy-3-methylphenyl)cyclohexyl)methyl)-N-(3-(2-methoxythiazol-5-yl)phenyl)cyclohexanecarboxamide] | ≤ 6.00
COc1ccc([C@H]2CC[C@H](CN(c3cccc(-c4cnc(C5CC5)s4)c3)C(=O)[C@H]3CC[C@H](NC(=O)CNC(C)=O)CC3)CC2)cc1C [Compound 31.09, trans-4-(2-Acetamidoacetamido)-N-(3-(2-cyclopropylthiazol-5-yl)phenyl)-N-((trans-4-(4-methoxy-3-methylphenyl)cyclohexyl)methyl)cyclohexanecarboxamide] | ≥ 6.60
COc1ccc([C@H]2CC[C@H](CN(c3cc(-c4coc(C5CC5)n4)ccn3)C(=O)[C@H]3CC[C@H](OC(=O)N4CC(CS(C)(=O)=O)C4)CC3)CC2)nc1C [Compound 7.101, trans-4-((4-(2-Cyclopropyloxazol-4-yl)pyridine-2-yl)((trans-4-(5-methoxy-6-methylpyridin-2-yl)cyclohexyl)methyl)carbamoyl)cyclohexyl 3-((methylsulfonyl)methyl)azetidine-1-carboxylate] | ≥ 6.60
COc1ccc([C@H]2CC[C@H](CN(c3cc(-c4coc(C5CC5)n4)ccn3)C(=O)[C@H]3CC[C@H](NC(=O)CO)CC3)CC2)cc1C [Compound 26.18, trans-N-(4-(2-Cyclopropyloxazol-4-yl)pyridin-2-yl)-4-(2-hydroxyacetamido)-N-((trans-4-(4-methoxy-3-methylphenyl)cyclohexyl)methyl) cyclohexanecarboxamide] | ≥ 6.60
COc1ccc([C@H]2CC[C@H](CN(c3cc(-c4cnn(C(C)C)c4)ccn3)C(=O)[C@H]3CC[C@H](NC(=O)COC(C)=O)CC3)CC2)cc1C [Compound 26.34, 2-((trans-4-((4-(1-Isopropyl-1H-pyrazol-4-yl)pyridin-2-yl)((trans-4-(4-methoxy-3-methylphenyl)cyclohexyl)methyl)carbamoyl)cyclohexyl)amino)-2-oxoethyl acetate] | ≥ 6.60
COc1ncc([C@H]2CC[C@H](CN(c3cc(-c4coc(C5CC5)n4)ccn3)C(=O)[C@H]3CC[C@H](OC(=O)N4CC(O)C4)CC3)CC2)cc1C [Compound 7.94, trans-4-((4-(2-Cyclopropyloxazol-4-yl)pyridine-2-yl)((trans-4-(6-methoxy-5-methylpyridin-3-yl)cyclohexyl)methyl)carbamoyl)cyclohexyl 3-hydroxyazetidine-1-carboxylate] | ≥ 6.60
COc1ccc(C23CCC(CN(c4cccc(-c5cnn(C6CC6)c5)c4)C(=O)[C@H]4CC[C@H](C(=O)O)CC4)(CC2)CC3)cc1C [Compound 17.17, trans-4-((3-(1-Cyclopropyl-1H-pyrazol-4-yl)phenyl)((4-(4-methoxy-3-methylphenyl)bicyclo[2.2.2]octan-1-yl)methyl)carbamoyl) cyclohexanecarboxylic acid] | ≥ 6.60
COc1ccc([C@H]2CC[C@H](CN(c3cccc(-c4cnn(C5CC5)c4)c3)C(=O)[C@H]3CC[C@H](C(=O)O)CC3)CC2)cc1C#N [Compound 17.22, trans-4-(((trans-4-(3-Cyano-4-methoxyphenyl)cyclohexyl)methyl)(3-(1-cyclopropyl-1H-pyrazol-4-yl)phenyl)carbamoyl)cyclohexanecarboxylic acid] | ≥ 6.60
COc1ccc([C@H]2CC[C@H](CN(c3cccc(-c4cnc(C5CC5)s4)c3)C(=O)[C@H]3CC[C@H](NC(=O)CS(C)(=O)=O)CC3)CC2)cc1C [Compound 31.12, trans-N-(3-(2-Cyclopropylthiazol-5-yl)phenyl)-N-((trans-4-(4-methoxy-3-methylphenyl)cyclohexyl)methyl)-4-(2-(methylsulfonyl)acetamido) cyclohexanecarboxamide] | ≥ 6.60
COc1ccc(C23CCC(CN(c4cccc(-c5cnn(C6CC6)c5)c4)C(=O)[C@H]4CC[C@H](NC(=O)OC(C)(C)C)CC4)(CC2)CC3)cc1C [Compound 18.15, tert-Butyl (4-((3-(1-cyclopropyl-1H-pyrazol-4-yl)phenyl)((4-(4-methoxy-3-methylphenyl)bicyclo[2.2.2]octan-1-yl)methyl)carbamoyl)cyclohexyl) trans-carbamate] | ≥ 6.60
COCCN(C)C(=O)O[C@H]1CC[C@H](C(=O)N(C[C@H]2CC[C@H](c3ccc(OC)c(C)n3)CC2)c2cc(-c3coc(C4CC4)n3)ccn2)CC1 [Compound 6.63] | ≥ 6.60
COc1ccc([C@H]2CC[C@H](CN(c3cc(-c4coc(C5CC5)n4)ccn3)C(=O)[C@H]3CC[C@H](C(=O)OC)CC3)CC2)nc1C [Compound 18.23, trans-Methyl 4-((4-(2-cyclopropyloxazol-4-yl)pyridin-2-yl) ((trans-4-(5-methoxy-6-methylpyridin-2-yl)cyclohexyl)methyl)carbamoyl) cyclohexanecarboxylate] | ≥ 6.60
CCCC1CN(C(=O)O[C@H]2CC[C@H](C(=O)N(C[C@H]3CC[C@H](c4ccc(OC)c(C)n4)CC3)c3cc(-c4coc(C5CC5)n4)ccn3)CC2)C1 [Compound 7.105, trans-4-((4-(2-Cyclopropyloxazol-4-yl)pyridin-2-yl)((trans-4-(5-methoxy-6-methylpyridin-2-yl)cyclohexyl)methyl)carbamoyl)cyclohexyl 3-propylazetidine-1-carboxylate] | ≥ 6.60
COc1ccc([C@H]2CC[C@H](CN(c3cccc(-c4coc(C(C)C)n4)c3)C(=O)[C@H]3CC[C@H](OC(=O)N4CC(O)C4)CC3)CC2)cc1C [Compound 7.64, trans-4-((3-(2-Isopropyloxazol-4-yl)phenyl)((trans-4-(4-methoxy-3-methylphenyl)cyclohexyl)methyl)carbamoyl)cyclohexyl 3-hydroxyazetidine-1-carboxylate] | ≥ 6.60
COc1ccc([C@H]2CC[C@H](CN(c3cc(-c4cnn(C(C)C)c4)ccn3)C(=O)[C@H]3CC[C@H](OC(=O)N(C)C)CC3)CC2)cc1C#N [Compound 7.45, trans-4-(((trans-4-(3-Cyano-4-methoxyphenyl)cyclohexyl)methyl)(4-(1-isopropyl-1H-pyrazol-4-yl)pyridin-2-yl)carbamoyl)cyclohexyl dimethylcarbamate] | ≥ 6.60
